Assay results taken from PMC6444592, “Citrullination of HP1γ chromodomain affects association with chromatin” (Epigenetics & Chromatin, 2019).
“Also recorded” adds a separate entry of the source.

How the values were obtained:
chromatin = experiment: single-particle tracking, 500 ms, motion blurring: chromatin residence time; assay type: cell-based, mouse; conditions: for Percentage, Specific / Percentage, Unspecific / Residence time, Specific / Residence time, Unspecific / Residence time, specific binding: 500 ms; for Residence time, specific binding / specific residence time, in words: −LIF 72 h; for Residence time, specific binding: mESCs, mean ± SD (n = 3); for specific residence time, in words: p value left to right = 0.027, 0.036; for unspecific residence time, effect of LIF withdrawal: ns. p value > 0.841
Text: Although HP1 is a multifunctional protein, its best-characterised function is its ability to specifically bind to H3 tails harbouring H3K9me3. This underpins the establishment of localised, as well as higher-order, chromatin domains. Indeed, binding of structural chromatin proteins, such as HP1, is crucial in establishing heterochromatin during stem cell differentiation. We therefore decided to focus on the chromatin bound fraction of HP1γ. We used a concept called motion blurring in which long exposures are used to blur molecules that are diffusing so they are not detected. Therefore, only molecules bound throughout the long exposure are imaged. We performed SPT at 500 ms time resolution of mESCs expressing either HP1γWT or HP1γR38/9A mutant proteins (−/+ LIF). Movies of representative cells are shown in Additional file 8: Movie S1, Additional file 9: Movie S2, Additional file 10: Movie S3, and Additional file 11: Movie S4.
Parental E14 mouse embryonic stem cell (mESC) line was profiled by transcriptome analysis, qPCR and potency assays and was routinely tested for mycoplasma contamination and tested negative. Cells were cultured in DMEM (Gibco) supplemented with 15% standard FCS (Gibco), 0.1 mM non-essential amino acids (Gibco), 1% penicillin/streptomycin, 2 mM L-glutamine (Gibco), 1 mM sodium pyruvate (Gibco), 0.1 mM β-mercaptoethanol (Life Technologies) and 10^6 units/l mLIF (ESGRO, Millipore). E14 cells were stored in incubators at 37 °C in 7.5% CO2 (100% humidity) and maintained in 0.1% gelatin coated 10-cm culture dishes with 1:6 passaging every 2 days. Media was changed on a daily basis. E14 ESCs expressing mouse mEos3.2–HaloTag-HP1 fusion proteins were generated by transfecting appropriate pSB7 plasmids into E14 cells using Lipofectamine 2000 transfection reagent (Invitrogen), followed by selection in 600 µg/ml geneticin (Life Technologies). After 2 weeks of geneticin selection, cells were sorted using a Sony SH800S cell sorter for the expression of mEos3.2. Differentiation of ESCs was induced by LIF withdrawal. ESCs cultured in complete ES cell media (+ LIF) were trypsinised and washed twice in 1x PBS to remove residual LIF, seeded into ES cell media without LIF and incubated for 24, 48 or 72 h.
An IX73 Olympus inverted microscope was used with circularly polarised laser beams aligned and focused at the back aperture of an Olympus 1.40 NA 100 × oil objective (Universal Plan Super Apochromat, 100 × , NA 1.40, UPLSAPO100XO/1.4). Continuous wavelength diode laser light sources used include a 561-nm (Cobolt, Jive 200, 200 mW) and a 405-nm laser (Stradus, Toptica, 405–100, 100 mW). Oblique angle illumination was achieved by aligning the laser off axis such that the emergent beam at the sample interface was near-collimated and incident at an angle slightly less than the critical angle θc ~ 67° for a glass/water interface. This generated a ~ 50 μm diameter excitation footprint. The power of the collimated beams at the back aperture of the microscope was 10 kW/cm^2 and 10–100 W/cm^2 for the 561-nm and 405-nm laser beams, respectively. The lasers were reflected by dichroic mirrors (Semrock, Di01-R405/488/561/635). The fluorescence emission was collected through the same objective and then further filtered using a combination of long-pass and band-pass filters (BLP01-561R and FF01-587/35 for 561 nm excitation). The emission signal was projected onto an EMCCD (Photometrics, Evolve 512 Delta) with an electron multiplication gain of 250 ADU/photon operating in a frame transfer mode.
mESCs expressing mEos3.2–HaloTag-tagged HP1γ were passaged 2 days before imaging onto 35-mm glass bottom dishes No 1.0 (MatTek Corporation P35G-1.0-14-C Case) in phenol red-free serum and LIF conditions, if not stated otherwise. […]

H3K9me3(1–16) peptides = experiment: bio-layer interferometry (BLI); assay type: binding; conditions: 20 mM Hepes KOH pH 7.2, 70 mM KCl; GST fusion; association 120 s, dissociation 120 s; WT 28.0 μM, R38/9K 25.5 μM, R38/9A 28.3 μM and lower concentrations
Procedure: Recombinant mouse full-length HP1 wildtype and mutant proteins were expressed in (as GST fusion proteins), and purified from, Escherichia coli as described. Proteins were concentrated using Amicon Ultra centrifugation filters with a 30 kDa cutoff (Millipore), washed into binding buffer (20 mM Hepes KOH pH 7.2, 70 mM KCl, 1 mM DTT, 0.1% Tween-20, 5% glycerol). Protein concentrations were determined by Bradford protein assay against a BSA standard, and purity was verified by SDS-PAGE followed by Coomassie-blue staining. Real-time binding assays of GST-HP1γ were performed using the BLItz® system (ForteBio) in binding buffer (+ 0.1% BSA). Biotinylated H3(1–16) peptides (NH2-[…](me3)STGGKAP-Biotin) were immobilised to Dip and Read High Precision Streptavidin (SAX) Biosensors (ForteBio), and kinetics for a range of protein concentrations were measured under advanced kinetics settings (1. initial baseline measuring buffer only: 30 s, 2. loading of peptides onto sensors: 120 s, 3. effective baseline measurement: 30 s, 4. association of GST-HP1γ proteins: 120 s, 5. dissociation of GST-HP1γ proteins: 120 s). The data were normalised to the effective baseline signal by subtracting the average baseline value (150–180 s) from each data point (150–420 s). […] Raw data are summarised in Additional file 3: Table S1.

Substance	Percentage, Specific (chromatin; +LIF, replicate i) [%]	Percentage, Unspecific (chromatin; +LIF, replicate i) [%]	Residence time, Specific (chromatin; +LIF, replicate i) [s]	Residence time, Unspecific (chromatin; +LIF, replicate i) [s]	Percentage, Specific (chromatin; +LIF, replicate ii) [%]	Percentage, Unspecific (chromatin; +LIF, replicate ii) [%]	Residence time, Specific (chromatin; +LIF, replicate ii) [s]	Residence time, Unspecific (chromatin; +LIF, replicate ii) [s]	Percentage, Specific (chromatin; +LIF, replicate iii) [%]	Percentage, Unspecific (chromatin; +LIF, replicate iii) [%]	Residence time, Specific (chromatin; +LIF, replicate iii) [s]	Residence time, Unspecific (chromatin; +LIF, replicate iii) [s]	Residence time, specific binding (chromatin) [s]	specific residence time, in words (chromatin)	unspecific residence time, effect of LIF withdrawal (chromatin; −LIF 72 h versus +LIF)	Percentage, Specific (chromatin; −LIF, replicate i) [%]	Percentage, Unspecific (chromatin; −LIF, replicate i) [%]	Residence time, Specific (chromatin; −LIF, replicate i) [s]	Residence time, Unspecific (chromatin; −LIF, replicate i) [s]	Percentage, Specific (chromatin; −LIF, replicate ii) [%]	also measured
HP1γR38/9A: HP1γ with alanine substitutions at amino acids 38 and 39 to mimic citrullination	89.000	11.000	26.000	4.100	90.900	9.100	17.900	2.100	82.500	17.500	17.400	1.300	29.5 ± 4.1	significantly lower than for HP1γWT molecules	no effect	83.000	17.000	34.000	4.900	90.800	specific residence time, in words (chromatin; listed as R38/9A mutant HP1γ): considerably shorter; Percentage, Unspecific (chromatin; −LIF, replicate ii): 9.200%; Residence time, Specific (chromatin; −LIF, replicate ii): 28.500 s; Residence time, Unspecific (chromatin; −LIF, replicate ii): 1.700 s; Percentage, Specific (chromatin; −LIF, replicate iii): 88.200%; Percentage, Unspecific (chromatin; −LIF, replicate iii): 11.800%; Residence time, Specific (chromatin; −LIF, replicate iii): 25.900 s; Residence time, Unspecific (chromatin; −LIF, replicate iii): 1.800 s; BLI binding, in words (H3K9me3(1–16) peptides): begin to plateau at significantly lower amounts compared to the WT protein; also recorded: distinctly different kinetic behaviour compared to the WT protein
HP1γWT: full-length mouse HP1γ wild type, as GST or mEos3.2–HaloTag fusion protein	91.000	9.000	36.000	4.400	93.400	6.600	27.527	1.549	87.000	13.000	22.800	1.500	49.2 ± 12.3	significantly increased	no effect	88.000	12.000	55.000	6.000	93.500	increase of specific residence time upon differentiation (chromatin; −LIF 72 h versus +LIF): 20 s; Percentage, Unspecific (chromatin; −LIF, replicate ii): 6.500%; Residence time, Specific (chromatin; −LIF, replicate ii): 57.488 s; Residence time, Unspecific (chromatin; −LIF, replicate ii): 1.811 s; Percentage, Specific (chromatin; −LIF, replicate iii): 88.000%; Percentage, Unspecific (chromatin; −LIF, replicate iii): 12.000%; Residence time, Specific (chromatin; −LIF, replicate iii): 35.000 s; Residence time, Unspecific (chromatin; −LIF, replicate iii): 2.300 s; BLI binding, in words (H3K9me3(1–16) peptides): binds exclusively to H3K9me3 peptides
